Row | Structure (SMILES) | logP
1 | Oc1c(Cl)cc(-c2ccc(Cl)cc2)cc1Cl | 5.22
2 | Oc1ccc(-c2ccc(Cl)cc2)cc1 | 4.04
3 | Oc1ccc(-c2ccccc2)cc1 | 3.33
4 | Oc1ccc(-c2ccc(O)cc2)cc1 | 2.66
5 | Oc1ccc(-c2ccccc2)c(Cl)c1 | 4.04
6 | Oc1ccc(-c2ccc(O)cc2Cl)cc1 | 3.37
7 | Oc1ccc(-c2cc(Cl)c(Cl)c(Cl)c2Cl)cc1 | 5.81
8 | Oc1c(Cl)cc(-c2cc(Cl)c(O)c(Cl)c2)cc1Cl | 5.14
9 | Oc1ccc(-c2c(Cl)cc(Cl)cc2Cl)cc1 | 5.22
10 | Oc1ccc(-c2cc(Cl)ccc2Cl)cc1 | 4.63
11 | Oc1ccc(-c2c(Cl)cccc2Cl)cc1 | 4.63

Reference: the SangsterLogP compilation
